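Exposure lasted 48 hours, with cells grown in 96-well plates and compounds tested at five concentrations. GI50 is the concentration that inhibits growth by half.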 The source made the active and inactive calls. Rule as the data show it: active = GI50 up to about 1.1 µM and inactive = higher.
How the values were obtained:
Assay in all cases: inhibition of tumour cell growth, NCI panel, 48 h
786-0 = tested on: 786-0
A498 = tested on: A498
A549 = tested on: A549
ACHN = tested on: ACHN
BT-549 = tested on: BT-549
CAKI-1 = tested on: CAKI-1
COLO 205 = tested on: COLO 205
DU-145 = tested on: DU-145
EKVX = tested on: EKVX
HCT-116 = tested on: HCT-116
HCT-15 = tested on: HCT-15
HL-60 = tested on: HL-60
HOP-62 = tested on: HOP-62
HOP-92 = tested on: HOP-92
HT-29 = tested on: HT-29
Hs-578T = tested on: Hs-578T
IGROV-1 = tested on: IGROV-1
K562 = tested on: K562
KM12 = tested on: KM12
LOX IMVI = tested on: LOX IMVI
M14 = tested on: M14
MCF7 = tested on: MCF7
MDA-MB-231 = tested on: MDA-MB-231
MDA-MB-435 = tested on: MDA-MB-435
MDA-N = tested on: MDA-N
MOLT-4 = tested on: MOLT-4
Malme-3M = tested on: Malme-3M
NCI-H226 = tested on: NCI-H226
NCI-H23 = tested on: NCI-H23
NCI-H522 = tested on: NCI-H522
NCI/ADR-RES = tested on: NCI/ADR-RES
OVCAR-3 = tested on: OVCAR-3
OVCAR-4 = tested on: OVCAR-4
OVCAR-5 = tested on: OVCAR-5
OVCAR-8 = tested on: OVCAR-8
PC-3 = tested on: PC-3
RPMI-8226 = tested on: RPMI-8226
RXF 393 = tested on: RXF 393
SF-268 = tested on: SF-268
SF-295 = tested on: SF-295
SF-539 = tested on: SF-539
SK-MEL-28 = tested on: SK-MEL-28
SK-MEL-2 = tested on: SK-MEL-2
SK-MEL-5 = tested on: SK-MEL-5
SK-OV-3 = tested on: SK-OV-3
SN12C = tested on: SN12C
SNB-19 = tested on: SNB-19
SR = tested on: SR
SW-620 = tested on: SW-620
T47D = tested on: T47D
TK-10 = tested on: TK-10
U-251 = tested on: U-251
UACC-257 = tested on: UACC-257
UACC-62 = tested on: UACC-62
UO-31 = tested on: UO-31
CCRF-CEM = tested on: CCRF-CEM
HCC 2998 = tested on: HCC 2998
NCI-H460 = tested on: NCI-H460

Cn1c2c(c3ccccc31)CCN1C(=O)C34CCCC3CC21S4 (centres undefined)
GI50 (786-0): > 100 µM (inactive)
GI50 (A498): > 100 µM (inactive)
GI50 (A549): > 100 µM (inactive)
GI50 (ACHN): > 100 µM (inactive)
GI50 (BT-549): > 100 µM (inactive)
GI50 (CAKI-1): > 100 µM (inactive)
GI50 (COLO 205): > 100 µM (inactive)
GI50 (DU-145): > 100 µM (inactive)
GI50 (EKVX): > 100 µM (inactive)
GI50 (HCT-116): > 100 µM (inactive)
GI50 (HCT-15): > 100 µM
GI50 (HL-60): > 100 µM (inactive)
GI50 (HOP-62): > 100 µM (inactive)
GI50 (HOP-92): > 100 µM (inactive)
GI50 (HT-29): > 100 µM (inactive)
GI50 (Hs-578T): > 100 µM (inactive)
GI50 (IGROV-1): > 100 µM (inactive)
GI50 (K562): > 100 µM (inactive)
GI50 (KM12): > 100 µM (inactive)
GI50 (LOX IMVI): > 100 µM (inactive)
GI50 (M14): > 100 µM (inactive)
GI50 (MCF7): > 100 µM (inactive)
GI50 (MDA-MB-231): > 100 µM (inactive)
GI50 (MDA-MB-435): > 100 µM (inactive)
GI50 (MDA-N): > 100 µM (inactive)
GI50 (MOLT-4): > 100 µM (inactive)
GI50 (Malme-3M): > 100 µM (inactive)
GI50 (NCI-H226): > 100 µM (inactive)
GI50 (NCI-H23): > 100 µM (inactive)
GI50 (NCI-H522): > 100 µM (inactive)
GI50 (NCI/ADR-RES): > 100 µM (inactive)
GI50 (OVCAR-3): > 100 µM (inactive)
GI50 (OVCAR-4): > 100 µM (inactive)
GI50 (OVCAR-5): > 100 µM (inactive)
GI50 (OVCAR-8): > 100 µM (inactive)
GI50 (PC-3): 95.1 µM (inactive)
GI50 (RPMI-8226): > 100 µM (inactive)
GI50 (RXF 393): > 100 µM (inactive)
GI50 (SF-268): > 100 µM (inactive)
GI50 (SF-295): > 100 µM (inactive)
GI50 (SF-539): > 100 µM (inactive)
GI50 (SK-MEL-28): > 100 µM (inactive)
GI50 (SK-MEL-2): > 100 µM (inactive)
GI50 (SK-MEL-5): 76.2 µM (inactive)
GI50 (SK-OV-3): > 100 µM (inactive)
GI50 (SN12C): > 100 µM (inactive)
GI50 (SNB-19): > 100 µM (inactive)
GI50 (SR): > 100 µM (inactive)
GI50 (SW-620): > 100 µM (inactive)
GI50 (T47D): 87.1 µM (inactive)
GI50 (TK-10): > 100 µM (inactive)
GI50 (U-251): > 100 µM (inactive)
GI50 (UACC-257): > 100 µM (inactive)
GI50 (UACC-62): 78.7 µM (inactive)
GI50 (UO-31): > 100 µM (inactive)

C1=C\SS/C=C\SS/1
GI50 (786-0): 17 µM (inactive)
GI50 (A498): > 100 µM (inactive)
GI50 (A549): 48.1 µM (inactive)
GI50 (ACHN): 27.9 µM (inactive)
GI50 (BT-549): 97.1 µM (inactive)
GI50 (CAKI-1): > 10 µM (inactive)
GI50 (CCRF-CEM): 2.28 µM (inactive)
GI50 (COLO 205): 39.3 µM (inactive)
GI50 (DU-145): > 100 µM (inactive)
GI50 (EKVX): 46.8 µM (inactive)
GI50 (HCC 2998): 53.3 µM (inactive)
GI50 (HCT-116): 34.4 µM (inactive)
GI50 (HCT-15): 14.4 µM
GI50 (HL-60): 7.57 µM (inactive)
GI50 (HOP-62): 54.6 µM (inactive)
GI50 (HOP-92): 24.3 µM (inactive)
GI50 (HT-29): 15.6 µM (inactive)
GI50 (Hs-578T): > 100 µM (inactive)
GI50 (IGROV-1): 16.6 µM (inactive)
GI50 (K562): 26.1 µM (inactive)
GI50 (KM12): 36 µM (inactive)
GI50 (LOX IMVI): 29 µM (inactive)
GI50 (M14): 29.5 µM (inactive)
GI50 (MCF7): 15.9 µM (inactive)
GI50 (MDA-MB-231): 6.53 µM (inactive)
GI50 (MDA-MB-435): 57.5 µM (inactive)
GI50 (MDA-N): 40.3 µM (inactive)
GI50 (MOLT-4): 12.9 µM (inactive)
GI50 (NCI-H226): > 100 µM (inactive)
GI50 (NCI-H23): 40.9 µM (inactive)
GI50 (NCI-H460): 23.9 µM (inactive)
GI50 (NCI/ADR-RES): 46 µM (inactive)
GI50 (OVCAR-4): 46.8 µM (inactive)
GI50 (OVCAR-5): 35.3 µM (inactive)
GI50 (OVCAR-8): 17.1 µM (inactive)
GI50 (PC-3): 38.5 µM (inactive)
GI50 (RPMI-8226): 28.9 µM (inactive)
GI50 (RXF 393): 32.2 µM (inactive)
GI50 (SF-268): 40.5 µM (inactive)
GI50 (SF-295): 58.1 µM (inactive)
GI50 (SK-MEL-28): > 100 µM (inactive)
GI50 (SK-MEL-2): 48.4 µM (inactive)
GI50 (SK-MEL-5): 24.5 µM (inactive)
GI50 (SK-OV-3): > 100 µM (inactive)
GI50 (SN12C): 61.9 µM (inactive)
GI50 (SNB-19): 32.3 µM (inactive)
GI50 (SR): > 100 µM (inactive)
GI50 (SW-620): 33.1 µM (inactive)
GI50 (T47D): 55.1 µM (inactive)
GI50 (TK-10): 40.7 µM (inactive)
GI50 (U-251): 34.8 µM (inactive)
GI50 (UACC-257): 38.9 µM (inactive)
GI50 (UACC-62): 52.4 µM (inactive)
GI50 (UO-31): 22.2 µM (inactive)

COC(=O)/C=C/[C@@H]1[C@H](C)N1S(=O)(=O)c1ccc(C)cc1 (some centres undefined)
GI50 (786-0): 61.4 µM (inactive)
GI50 (A498): > 100 µM (inactive)
GI50 (A549): > 100 µM (inactive)
GI50 (ACHN): > 100 µM (inactive)
GI50 (BT-549): > 100 µM (inactive)
GI50 (CAKI-1): > 100 µM (inactive)
GI50 (CCRF-CEM): > 100 µM (inactive)
GI50 (COLO 205): > 100 µM (inactive)
GI50 (DU-145): > 100 µM (inactive)
GI50 (EKVX): > 100 µM (inactive)
GI50 (HCC 2998): > 100 µM (inactive)
GI50 (HCT-116): > 100 µM (inactive)
GI50 (HCT-15): > 100 µM
GI50 (HL-60): > 100 µM (inactive)
GI50 (HOP-62): > 100 µM (inactive)
GI50 (HT-29): > 100 µM (inactive)
GI50 (Hs-578T): > 100 µM (inactive)
GI50 (IGROV-1): > 100 µM (inactive)
GI50 (K562): > 100 µM (inactive)
GI50 (LOX IMVI): 56.4 µM (inactive)
GI50 (M14): > 100 µM (inactive)
GI50 (MCF7): > 100 µM (inactive)
GI50 (MDA-MB-231): 78.7 µM (inactive)
GI50 (MDA-MB-435): > 100 µM (inactive)
GI50 (MDA-N): > 100 µM (inactive)
GI50 (MOLT-4): > 100 µM (inactive)
GI50 (Malme-3M): > 100 µM (inactive)
GI50 (NCI-H226): > 100 µM (inactive)
GI50 (NCI-H23): > 100 µM (inactive)
GI50 (NCI-H460): > 100 µM (inactive)
GI50 (NCI-H522): > 100 µM (inactive)
GI50 (NCI/ADR-RES): > 100 µM (inactive)
GI50 (OVCAR-3): > 100 µM (inactive)
GI50 (OVCAR-4): > 100 µM (inactive)
GI50 (OVCAR-5): > 100 µM (inactive)
GI50 (OVCAR-8): > 100 µM (inactive)
GI50 (PC-3): > 100 µM (inactive)
GI50 (RPMI-8226): > 100 µM (inactive)
GI50 (RXF 393): > 100 µM (inactive)
GI50 (SF-268): > 100 µM (inactive)
GI50 (SF-295): > 100 µM (inactive)
GI50 (SF-539): > 100 µM (inactive)
GI50 (SK-MEL-28): > 100 µM (inactive)
GI50 (SK-MEL-2): 29.7 µM (inactive)
GI50 (SK-MEL-5): > 100 µM (inactive)
GI50 (SK-OV-3): > 100 µM (inactive)
GI50 (SN12C): > 100 µM (inactive)
GI50 (SNB-19): > 100 µM (inactive)
GI50 (SR): > 100 µM (inactive)
GI50 (SW-620): > 100 µM (inactive)
GI50 (T47D): > 100 µM (inactive)
GI50 (TK-10): > 100 µM (inactive)
GI50 (U-251): > 100 µM (inactive)
GI50 (UACC-257): > 100 µM (inactive)
GI50 (UACC-62): > 100 µM (inactive)

— ChEMBL document CHEMBL1201862, “PubChem BioAssay data set” (2004)
